Experimental data taken from PubChem BioAssay AID1963984 (Molecular Pharmacology Branch, DTP, NCI, 2024).
pIC50: −log10 of the molar value.

Tested on: 233499-124-R-J3-PDC spheroids with HUVEC/MSC, viability
Assay: Anticancer human tumor 233499-124-R-J3-PDC patient-derived colon adenocarcinoma cell line growth inhibition [PI3K]
Settings: for pIC50: curve of first compound; for viability, T/C: stronger effect = lower value; active = viability on the fitted dose curve at most 10% of control; inactive = the rest
In short: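 High-throughput combination screen: PI3K inhibitors crossed with targeted small molecules on complex spheroids of tumor cells, HUVEC and MSCs at 37 degrees C, 5% CO2. Top concentration was at or near clinical Cmax (otherwise 10 microM), with half-log decrements.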

[1] = second compound 0.0316 µM, first compound 0.0316 µM
[2] = second compound 0.0316 µM, first compound 0.1 µM
[3] = second compound 0.0316 µM, first compound 0.316 µM
[4] = second compound 0.0316 µM, first compound 1 µM
[5] = second compound 0.0316 µM, first compound 3.16 µM
[6] = second compound 0.0316 µM, first compound 10 µM
[7] = second compound 0.1 µM, first compound 0.0316 µM
[8] = second compound 0.1 µM, first compound 0.1 µM
[9] = second compound 0.1 µM, first compound 0.316 µM
[10] = second compound 0.1 µM, first compound 1 µM
[11] = second compound 0.1 µM, first compound 3.16 µM
[12] = second compound 0.1 µM, first compound 10 µM
[13] = second compound 0.316 µM, first compound 0.0316 µM
[14] = second compound 0.316 µM, first compound 0.1 µM
[15] = second compound 0.316 µM, first compound 0.316 µM
[16] = second compound 0.316 µM, first compound 1 µM
[17] = second compound 0.316 µM, first compound 3.16 µM
[18] = second compound 0.316 µM, first compound 10 µM
[19] = second compound 1 µM, first compound 0.0316 µM
[20] = second compound 1 µM, first compound 0.1 µM
[21] = second compound 1 µM, first compound 0.316 µM
[22] = second compound 1 µM, first compound 1 µM
[23] = second compound 1 µM, first compound 3.16 µM
[24] = second compound 1 µM, first compound 10 µM
[25] = second compound 3.16 µM, first compound 0.0316 µM
[26] = second compound 3.16 µM, first compound 0.1 µM
[27] = second compound 3.16 µM, first compound 0.316 µM
[28] = second compound 3.16 µM, first compound 1 µM
[29] = second compound 3.16 µM, first compound 3.16 µM
[30] = second compound 3.16 µM, first compound 10 µM
[31] = second compound 10 µM, first compound 0.0316 µM
[32] = second compound 10 µM, first compound 0.1 µM
[33] = second compound 10 µM, first compound 0.316 µM
[34] = second compound 10 µM, first compound 1 µM
[35] = second compound 10 µM, first compound 3.16 µM
[36] = second compound 10 µM, first compound 10 µM
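Also: spheroids exposed to agents for seven days before readout.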
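For viability, T/C in this document: percent viability relative to DMSO vehicle control taken as 100%.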

C#Cc1c(F)ccc2cc(O)cc(-c3ncc4c(N5CC6CCC(C5)N6)nc(OCC56CCCN5CC(F)C6)nc4c3F)c12 (stereo not given) + CC(Nc1ncnc2nc[nH]c12)c1cc2cccc(Cl)c2c(=O)n1-c1ccccc1
inactive: viability, T/C [1] 95% | viability, T/C [2] 101% | viability, T/C [3] 82.5% | viability, T/C [4] 90.7% | viability, T/C [5] 85.2% | viability, T/C [6] 75.5% | viability, T/C [7] 113% | viability, T/C [8] 114% | viability, T/C [9] 81.7% | viability, T/C [10] 94.7% | viability, T/C [11] 84% | viability, T/C [12] 73.2% | viability, T/C [13] 112% | viability, T/C [14] 92.1% | viability, T/C [15] 105% | viability, T/C [16] 90.6% | viability, T/C [17] 87.9% | viability, T/C [18] 69.7% | viability, T/C [19] 102% | viability, T/C [20] 102% | viability, T/C [21] 108% | viability, T/C [22] 95.5% | viability, T/C [23] 109% | viability, T/C [24] 90.6% | viability, T/C [25] 110% | viability, T/C [26] 94.2% | viability, T/C [27] 101% | viability, T/C [28] 77.9% | viability, T/C [29] 87.5% | viability, T/C [30] 55.9% | viability, T/C [31] 92.8% | viability, T/C [32] 89.4% | viability, T/C [33] 87.5% | viability, T/C [34] 84.7% | viability, T/C [35] 108% | viability, T/C [36] 84.7%
< 5.00: pIC50 (second compound 0.0316 µM) | pIC50 (second compound 0.1 µM) | pIC50 (second compound 0.316 µM) | pIC50 (second compound 1 µM) | pIC50 (second compound 3.16 µM) | pIC50 (second compound 10 µM)

C=CC(=O)N1CCN(c2nc(=O)n(-c3c(C)ccnc3C(C)C)c3nc(-c4c(O)cccc4F)c(F)cc23)C(C)C1 (stereo not given) + CC(Nc1ncnc2nc[nH]c12)c1cc2cccc(Cl)c2c(=O)n1-c1ccccc1
inactive: viability, T/C [1] 103% | viability, T/C [2] 89.2% | viability, T/C [3] 81.2% | viability, T/C [4] 84.3% | viability, T/C [5] 85.8% | viability, T/C [6] 91.8% | viability, T/C [7] 91% | viability, T/C [8] 87.4% | viability, T/C [9] 92% | viability, T/C [10] 79.8% | viability, T/C [11] 88.1% | viability, T/C [12] 96.8% | viability, T/C [13] 81.1% | viability, T/C [14] 86.4% | viability, T/C [15] 87.4% | viability, T/C [16] 88.8% | viability, T/C [17] 90% | viability, T/C [18] 82.3% | viability, T/C [19] 96.6% | viability, T/C [20] 89.4% | viability, T/C [21] 87.8% | viability, T/C [22] 88.4% | viability, T/C [23] 92.9% | viability, T/C [24] 93.3% | viability, T/C [25] 91.3% | viability, T/C [26] 90.9% | viability, T/C [27] 78.3% | viability, T/C [28] 79.7% | viability, T/C [29] 71.6% | viability, T/C [30] 89% | viability, T/C [31] 80.9% | viability, T/C [32] 82.5% | viability, T/C [33] 81.8% | viability, T/C [34] 97.3% | viability, T/C [35] 69.4% | viability, T/C [36] 88.3%
< 5.00: pIC50 (second compound 0.0316 µM) | pIC50 (second compound 0.1 µM) | pIC50 (second compound 0.316 µM) | pIC50 (second compound 1 µM) | pIC50 (second compound 3.16 µM) | pIC50 (second compound 10 µM)

CC(Cn1ccc(-c2ccc(C#N)c(Cl)c2)n1)NC(=O)c1cc(C(C)O)[nH]n1 (stereo not given) + CC(Nc1ncnc2nc[nH]c12)c1cc2cccc(Cl)c2c(=O)n1-c1ccccc1
< 5.00: pIC50 (second compound 0.0316 µM) | pIC50 (second compound 0.1 µM) | pIC50 (second compound 0.316 µM) | pIC50 (second compound 1 µM) | pIC50 (second compound 3.16 µM) | pIC50 (second compound 10 µM)
inactive: viability, T/C [1] 100% | viability, T/C [2] 84.7% | viability, T/C [3] 93.2% | viability, T/C [4] 91.9% | viability, T/C [5] 109% | viability, T/C [6] 75% | viability, T/C [7] 98.2% | viability, T/C [8] 91.6% | viability, T/C [9] 81.5% | viability, T/C [10] 94.6% | viability, T/C [11] 68.8% | viability, T/C [12] 92.2% | viability, T/C [13] 87.3% | viability, T/C [14] 101% | viability, T/C [15] 73.3% | viability, T/C [16] 99.6% | viability, T/C [17] 100% | viability, T/C [18] 101% | viability, T/C [19] 96.2% | viability, T/C [20] 95.8% | viability, T/C [21] 81.4% | viability, T/C [22] 110% | viability, T/C [23] 92.9% | viability, T/C [24] 90.6% | viability, T/C [25] 91.6% | viability, T/C [26] 96.5% | viability, T/C [27] 78.1% | viability, T/C [28] 88.7% | viability, T/C [29] 78.3% | viability, T/C [30] 86.5% | viability, T/C [31] 86.1% | viability, T/C [32] 96.3% | viability, T/C [33] 83.2% | viability, T/C [34] 102% | viability, T/C [35] 75.5% | viability, T/C [36] 93.3%

CC1(C)CCC(Nc2ncc(C(F)(F)F)c(-c3c[nH]c4c(P(C)(C)=O)c(C#N)ccc34)n2)CN1 (stereo not given) + CC(Nc1ncnc2nc[nH]c12)c1cc2cccc(Cl)c2c(=O)n1-c1ccccc1
7.04: pIC50 (second compound 0.316 µM)
6.68: pIC50 (second compound 0.1 µM)
6.69: pIC50 (second compound 0.0316 µM)
> 7.50: pIC50 (second compound 10 µM)
6.56: pIC50 (second compound 3.16 µM)
6.77: pIC50 (second compound 1 µM)
inactive: viability, T/C [1] 88.8% | viability, T/C [2] 52.3% | viability, T/C [3] 40% | viability, T/C [4] 50.8% | viability, T/C [5] 25.2% | viability, T/C [6] 20.1% | viability, T/C [7] 93% | viability, T/C [8] 50.4% | viability, T/C [9] 49% | viability, T/C [10] 30.9% | viability, T/C [11] 29.8% | viability, T/C [12] 6.77% | viability, T/C [13] 66.7% | viability, T/C [14] 46% | viability, T/C [15] 30.7% | viability, T/C [16] 32.2% | viability, T/C [17] 34% | viability, T/C [18] 10.2% | viability, T/C [19] 81.8% | viability, T/C [20] 50.5% | viability, T/C [21] 51% | viability, T/C [22] 28.2% | viability, T/C [23] 22.7% | viability, T/C [24] 22.6% | viability, T/C [25] 75.9% | viability, T/C [26] 67.2% | viability, T/C [27] 46.8% | viability, T/C [28] 27.5% | viability, T/C [29] 23.2% | viability, T/C [31] 52.3% | viability, T/C [32] 36.4% | viability, T/C [33] 49.6% | viability, T/C [34] 20.7% | viability, T/C [35] 38.8%
active: viability, T/C [30] 4.38% | viability, T/C [36] 6.16%

Cn1nccc1Nc1nccc(-c2ccn(C(CO)c3ccc(Cl)c(F)c3)c(=O)c2)n1 (stereo not given) + CC(Nc1ncnc2nc[nH]c12)c1cc2cccc(Cl)c2c(=O)n1-c1ccccc1
inactive: viability, T/C [1] 108% | viability, T/C [2] 104% | viability, T/C [3] 110% | viability, T/C [4] 88% | viability, T/C [5] 89% | viability, T/C [6] 70.8% | viability, T/C [7] 103% | viability, T/C [8] 95.6% | viability, T/C [9] 91.3% | viability, T/C [10] 65.1% | viability, T/C [11] 92.8% | viability, T/C [12] 62.3% | viability, T/C [13] 108% | viability, T/C [14] 89.9% | viability, T/C [15] 90.4% | viability, T/C [16] 70.8% | viability, T/C [17] 78.1% | viability, T/C [18] 68.6% | viability, T/C [19] 91.7% | viability, T/C [20] 72.6% | viability, T/C [21] 72.9% | viability, T/C [22] 86.3% | viability, T/C [23] 81.3% | viability, T/C [24] 69% | viability, T/C [25] 87% | viability, T/C [26] 87.9% | viability, T/C [27] 74.5% | viability, T/C [28] 89.8% | viability, T/C [29] 66.3% | viability, T/C [30] 77.6% | viability, T/C [31] 76.8% | viability, T/C [32] 83.8% | viability, T/C [33] 98% | viability, T/C [34] 69.9% | viability, T/C [35] 76.4% | viability, T/C [36] 51.9%
< 5.00: pIC50 (second compound 0.0316 µM) | pIC50 (second compound 0.1 µM) | pIC50 (second compound 0.316 µM) | pIC50 (second compound 1 µM) | pIC50 (second compound 3.16 µM) | pIC50 (second compound 10 µM)
